Experimental findings from US11883539B2, “Pharmaceutical compositions of berberine with EPA and DHA, and methods thereof” (SHENZHEN HIGHTIDE BIOPHARMACEUTICAL, LTD., priority 2015, dated 2024) are described below.

The data set can be described thus: Single-dose pharmacokinetics study in rats (BBR•HCl, EPA-EE, BBR + EPA-EE; 3 rats per group). Type of data set: in vivo. The following applies: male, Sprague-Dawley, rat, SD rats, single oral administration, plasma. The protocol: In the single-dose pharmacokinetics study in rats, after 7-day acclimation, healthy male Sprague-Dawley (SD) rats with the body weight of 210-250 g were randomized into four groups as follows (3 rats per group).
The rats in each group were orally treated with the suspensions of the corresponding testing articles indicated above in 0.5% gum tragacanth respectively. Blood samples of the test animals were collected pre-dose and at the time points of 15 min, 30 min, 1 h, 1.5 h, 2 h, 4 h, 8 h, 24 h post-dose. The collected blood samples (approximately 400 μL) were placed into tubes containing heparin sodium and centrifuged at 8,000 rpm for 6 minutes at 4° C. to separate plasma. The obtained plasma from each sample was stored at −80° C. until being analyzed.
Plasma concentrations of BBR and EPA were determined using tandem mass spectrometry (LC-MS/MS) analysis. A non-compartmental module of WinNonlin® Professional 5.2 (Pharsight; St. Louis MO), was used to calculate PK parameters. The abbreviation AUC(0-t) represents area under the curve from the time of dosing to the time of the last observation, the AUC(0-∞) represents area under the curve from the time of dosing to infinity, and the Cmax represents maximum concentration detected.

Read-outs that look alike come from different tables or passages of the source.

Regarding `CCC=CCC=CCC=CCC=CCC=CCCCC(=O)O` (stereo in doubt) [EPA, (5Z,8Z,11Z,14Z,17Z)-5,8,11,14,17-icosapentaenoic acid], the AUC(0-t) (in general, the area under the concentration-time curve up to a stated or last time point) (EPA-EE 45.48 mg/Kg (alone or + BBR•HCl 51.13 mg/Kg), read-out: EPA (Free acid) AUC(0-t)) is 3750 ng·h/mL. In addition, the AUC(0-inf) (EPA-EE 45.48 mg/Kg (alone or + BBR•HCl 51.13 mg/Kg), read-out: EPA (Free acid) AUC(0-∞)) stood at 6600 ng·h/mL. The Cmax (commonly the maximum level reached in the sampled fluid or tissue) (EPA-EE 45.48 mg/Kg (alone or + BBR•HCl 51.13 mg/Kg), read-out: EPA (Free acid) Cmax) worked out at 629 ng/mL.

Turning to `COc1ccc2cc3[n+](cc2c1OC)CCc1cc2c(cc1-3)OCO2` [BBR, 5,6-dihydro-9,10-dimethoxybenzo[g]-1,3-benzodioxolo[5,6-a]quinolizinium], for the setting “BBR•HCl 51.13 mg/Kg (alone or + EPA-EE 45.48 mg/Kg), read-out: BBR AUC(0-t)”, the AUC(0-t) turned out to be 7.46 ng·h/mL. For the same compound, under “BBR•HCl 51.13 mg/Kg (alone or + EPA-EE 45.48 mg/Kg), read-out: BBR AUC(0-∞)”, the AUC(0-inf) stood at 8.84 ng·h/mL. Moreover, the Cmax (BBR•HCl 51.13 mg/Kg (alone or + EPA-EE 45.48 mg/Kg), read-out: BBR Cmax) came to 0.95 ng/mL.
